Measured values from US20030176456A1, “Methods for reducing alcohol cravings in chronic alcoholics” (priority 2001, published 2003).
Like-named read-outs stand apart in the source and are kept apart here.

How the values were obtained:
α1β3γ2 GABAA receptor [1] = target: T1, α1β3γ2 GABAA receptor (Homo sapiens, UniProt P14867+P18507); experiment: Binding affinity at recombinant GABAA receptors (Ltk cells stably transfected); details: recombinant αxβ3γ2; read-out: Ki α1
T1 construct: expressed in transfected cells

α2β3γ2 GABAA receptor [2] = target: T2, α2β3γ2 GABAA receptor (Homo sapiens, UniProt P18507+P47869); experiment: as above; details: recombinant αxβ3γ2; read-out: Ki α2
T2 construct: expressed in transfected cells

α5β3γ2 GABAA receptor [3] = target: T3, α5β3γ2 GABAA receptor (Homo sapiens, UniProt P18507+P31644); experiment: as above
T3 construct: expressed in transfected cells

α6β3γ2 GABAA receptor [4] = target: T4, α6β3γ2 GABAA receptor (Homo sapiens, UniProt P18507+Q16445); experiment: as above
T4 construct: expressed in transfected cells

[5] = target: wild type BDZ receptors (cerebral cortical membranes); experiment: Radioligand displacement at cerebral cortical membranes; assay type: binding; details: read-out: Displacement of [3H] flunitrazepam in vitro, IC50; rat cerebral cortical membranes; mean of three or more experiments
Protocol: [^3H] […] In brief, rats were sacrificed by decapitation, and the cerebral cortex removed. […] Tissue was resuspended in an equal volume of buffer and recentrifuged. This procedure was repeated a total of three times and the tissue resuspended in 50 volumes of buffer. Incubations (1 mL) consisted of tissue (0.3 mL), drug solution (0.1 mL), buffer (0.5 mL) and radioligand (0.1 mL). […] The IC50 values were estimated using Hill plots.

α3β3γ2 GABAA receptor [6] = target: T5, α3β3γ2 GABAA receptor (Homo sapiens, UniProt P18507+P34903); experiment: Binding affinity at recombinant GABAA receptors (Ltk cells stably transfected); details: recombinant αxβ3γ2; read-out: Ki α3
T5 construct: expressed in transfected cells

HAD-1 rats = assay type: in vivo, rat; details: i.p.; chlordiazepoxide 10 mg/kg, βCCt 15 mg/kg; 10 min open field
Protocol: (§1) Ambulatory count in the open field was recorded individually for 10 min in a plexiglas chamber (42 cm×42 cm 30 cm) using a Digiscan activity monitoring system (Acuscan Electronics, Columbus, Ohio, USA) (for details of the monitoring system see June et al., 1998d).
(§2) βCCt (15 mg/kg i.p.) and chlordiazepoxide (10 mg/kg i.p.) were administered 15 and 30 min, respectively, prior to the rats being placed in the open field. EtOH (1.25 g/kg) was given 5 min prior to placing the rats in the open field. When βCCt was given in combination with either chlordiazepoxide or EtOH, it was given 10 min prior to chlordiazepoxide and EtOH. As noted above, βCCt was administered in Tween-20 solution, while all other drugs were mixed in sterile saline. Animals were tested between 9 am-3 pm.
(§3) Ambulatory count in the open field was recorded individually for 10 min in a plexiglas chamber (42 cm×42 cm 30 cm) using a Digiscan activity monitoring system (Acuscan Electronics, Columbus, Ohio, USA) (for details of the monitoring system see June et al., 1998b).
(§4) βCCt (5-60 mg/kg i.p.) and chlordiazepoxide (2.5, 5, 10 mg/kg i.p.) were administered 15 and 30 min, respectively, prior to being placed in the plus maze or open field. EtOH (1.25 g/kg) was given 5 min prior to placing the rats in the open field. When βCCt was given in combination with either chlordiazepoxide or EtOH, it was given 10 min prior to chlordiazepoxide and EtOH. As noted above, βCCt was administered in Tween-20 solution, while all other drugs were mixed in sterile saline. Animals were tested between 9am-3 pm.

P rats [7] = assay type: in vivo, rat; details: i.p.; chlordiazepoxide 10 mg/kg, βCCt 15 mg/kg; 10 min open field
Protocol: as §1, §2, §3, §4

α1β3γ2 GABAA receptor [8] = target: T1, α1β3γ2 GABAA receptor; details: footnoted b (Schering Labs, unpublished) or c (McKernan et al., 2000); read-out: Ki α1; cited from earlier work
α2β3γ2 GABAA receptor [9] = target: T2, α2β3γ2 GABAA receptor; details: footnoted b or c; read-out: Ki α2; cited from earlier work
α3β3γ2 GABAA receptor [10] = target: T5, α3β3γ2 GABAA receptor; details: footnoted b or c; read-out: Ki α3; cited from earlier work
α5β3γ2 GABAA receptor [11] = target: T3, α5β3γ2 GABAA receptor; details: footnoted b or c; read-out: Ki α5; cited from earlier work
α6β3γ2 GABAA receptor [12] = target: T4, α6β3γ2 GABAA receptor; details: footnoted b or c; read-out: Ki α6; cited from earlier work
P rats [13] = experiment: EtOH and sucrose responding after oral (gavage) administration; assay type: in vivo, rat
Description: In this study we compared the suppressant effect of βCCt and 3-PBC with naltrexone, a currently used alcohol antagonist on the market. As it is shown in FIG. 29A-B, orally administered βCCt can reduce alcohol responding, however, the effects are not dose related. In addition, 24 hr after administration of βCCt, it continues to reduce alcohol responding with selected doses. […] The suppressant effects of naltrexone in reducing alcohol responding are also dissipated 24 hr after the administration. […] Unlike naltrexone, the suppressant effects observed by βCCt and 3-PBC are selective for alcohol, and not reinforcers in general.

GABAA α1β3γ2 receptors = target: T6, GABAA α1β3γ2 receptors (Rattus norvegicus, UniProt P18508+P62813); experiment: Xenopus oocyte expression assay, modulation of GABA current; assay type: cell-based; details: saturating 1-10 μM modulator with EC50 GABA (50 μM); mean±S.D.
T6 construct: expressed in transfected cells; host or cells: Xenopus laevis oocytes injected with cRNA

GABAA α2β3γ2 receptors = experiment: as above; assay type: cell-based, rat; details: saturating 1-10 μM modulator with EC50 GABA (50 μM); mean±S.D.
GABAA α3β3γ2 receptors = experiment: as above; assay type: cell-based, rat; details: saturating 1-10 μM modulator with EC50 GABA (30 μM); mean±S.D.
GABAA α4β3γ2 receptors = experiment: as above; assay type: cell-based, rat
GABAA α5β3γ2 receptors = target: T7, GABAA α5β3γ2 receptors (Rattus norvegicus, UniProt P18508+P19969); experiment: as above; assay type: cell-based; details: saturating 1-10 μM modulator with EC50 GABA (30 μM); mean±S.D.
T7 construct: expressed in transfected cells; host or cells: Xenopus laevis oocytes injected with cRNA

[14] = tested on: recombinant GABAA α1 through α5 (β3γ2) receptors; experiment: Xenopus oocyte expression assay, result stated across several subtypes; assay type: cell-based, rat; details: saturating concentration; compared with 3-PBC
[15] = tested on: alcohol-preferring (P) rats; details: parenteral and oral administration (June et al., 1998b); cited from earlier work
squirrel monkeys = details: Rowlett et al., unpublished observation; cited from earlier work
[16] = June et al., 1998e; cited from earlier work
[17] = recombinant αxβ3γ2, read-out: Ki α5
[18] = recombinant αxβ3γ2, read-out: Ki α6

T4 sequence (Q16445 20-453): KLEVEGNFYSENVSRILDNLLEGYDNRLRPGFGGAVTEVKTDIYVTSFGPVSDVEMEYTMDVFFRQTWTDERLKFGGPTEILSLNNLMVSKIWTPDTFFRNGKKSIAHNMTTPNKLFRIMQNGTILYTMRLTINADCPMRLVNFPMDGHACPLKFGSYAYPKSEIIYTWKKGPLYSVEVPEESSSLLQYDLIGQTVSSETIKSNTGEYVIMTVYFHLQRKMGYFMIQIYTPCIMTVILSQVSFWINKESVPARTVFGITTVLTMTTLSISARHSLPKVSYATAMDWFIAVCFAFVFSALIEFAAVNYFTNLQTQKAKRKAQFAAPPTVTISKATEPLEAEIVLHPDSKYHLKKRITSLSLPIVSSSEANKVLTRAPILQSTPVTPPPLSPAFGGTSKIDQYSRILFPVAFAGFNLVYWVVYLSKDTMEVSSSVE
T4 sequence (P28472 26-473 partner): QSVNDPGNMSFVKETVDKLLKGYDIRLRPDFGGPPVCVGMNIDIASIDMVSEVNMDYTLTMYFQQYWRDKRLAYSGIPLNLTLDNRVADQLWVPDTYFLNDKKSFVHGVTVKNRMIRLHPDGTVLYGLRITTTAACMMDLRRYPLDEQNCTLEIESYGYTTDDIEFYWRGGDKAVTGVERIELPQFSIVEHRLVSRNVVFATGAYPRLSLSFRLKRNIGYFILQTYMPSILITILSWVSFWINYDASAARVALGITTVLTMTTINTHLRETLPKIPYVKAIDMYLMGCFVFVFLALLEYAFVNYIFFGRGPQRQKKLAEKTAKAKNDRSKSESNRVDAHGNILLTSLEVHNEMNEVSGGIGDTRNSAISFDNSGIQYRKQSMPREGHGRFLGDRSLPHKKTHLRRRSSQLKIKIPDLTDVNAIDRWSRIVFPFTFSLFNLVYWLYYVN
T4 sequence (P18507 40-475): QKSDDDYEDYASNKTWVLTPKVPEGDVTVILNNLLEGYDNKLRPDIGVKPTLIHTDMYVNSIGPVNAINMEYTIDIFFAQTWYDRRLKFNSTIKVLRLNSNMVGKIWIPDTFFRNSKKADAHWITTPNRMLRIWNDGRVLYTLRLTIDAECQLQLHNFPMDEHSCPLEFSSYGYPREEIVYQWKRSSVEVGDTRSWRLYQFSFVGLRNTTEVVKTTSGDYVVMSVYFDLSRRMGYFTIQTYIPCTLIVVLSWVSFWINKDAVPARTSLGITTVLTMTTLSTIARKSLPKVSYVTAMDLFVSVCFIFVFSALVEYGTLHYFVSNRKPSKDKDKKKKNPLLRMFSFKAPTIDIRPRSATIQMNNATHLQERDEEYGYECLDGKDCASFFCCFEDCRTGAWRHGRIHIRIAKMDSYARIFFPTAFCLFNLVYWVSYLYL
T2 sequence (P47869 29-451): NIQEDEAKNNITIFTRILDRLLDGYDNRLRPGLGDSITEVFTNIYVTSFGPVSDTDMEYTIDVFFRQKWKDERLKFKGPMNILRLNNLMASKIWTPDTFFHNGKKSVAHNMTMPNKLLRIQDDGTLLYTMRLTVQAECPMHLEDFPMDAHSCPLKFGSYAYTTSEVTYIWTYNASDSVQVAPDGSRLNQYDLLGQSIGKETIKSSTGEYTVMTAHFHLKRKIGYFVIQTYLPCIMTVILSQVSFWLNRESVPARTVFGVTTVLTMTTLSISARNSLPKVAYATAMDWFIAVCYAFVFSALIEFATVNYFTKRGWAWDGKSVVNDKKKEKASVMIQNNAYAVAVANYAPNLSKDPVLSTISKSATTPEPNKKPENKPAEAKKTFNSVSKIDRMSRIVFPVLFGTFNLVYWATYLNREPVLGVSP
T2 sequence (P28472 26-473 partner): as the sequence (P28472 26-473 partner) above
T2 sequence (P18507 40-475): as the sequence (P18507 40-475) above
T5 sequence (P34903 29-492): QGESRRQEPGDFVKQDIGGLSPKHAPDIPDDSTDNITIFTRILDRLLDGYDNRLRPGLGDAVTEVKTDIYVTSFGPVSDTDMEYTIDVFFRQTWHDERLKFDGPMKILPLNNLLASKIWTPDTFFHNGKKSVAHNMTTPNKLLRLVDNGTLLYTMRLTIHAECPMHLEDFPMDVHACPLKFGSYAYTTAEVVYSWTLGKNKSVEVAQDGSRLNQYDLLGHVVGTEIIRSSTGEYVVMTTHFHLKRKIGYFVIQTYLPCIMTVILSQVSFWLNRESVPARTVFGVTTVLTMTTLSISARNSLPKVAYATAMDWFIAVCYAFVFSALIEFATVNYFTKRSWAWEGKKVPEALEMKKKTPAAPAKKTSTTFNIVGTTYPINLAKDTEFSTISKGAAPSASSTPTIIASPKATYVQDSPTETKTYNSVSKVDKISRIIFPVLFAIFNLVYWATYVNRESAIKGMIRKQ
T5 sequence (P28472 26-473 partner): as the sequence (P28472 26-473 partner) above
T5 sequence (P18507 40-475): as the sequence (P18507 40-475) above
T3 sequence (P31644 32-462): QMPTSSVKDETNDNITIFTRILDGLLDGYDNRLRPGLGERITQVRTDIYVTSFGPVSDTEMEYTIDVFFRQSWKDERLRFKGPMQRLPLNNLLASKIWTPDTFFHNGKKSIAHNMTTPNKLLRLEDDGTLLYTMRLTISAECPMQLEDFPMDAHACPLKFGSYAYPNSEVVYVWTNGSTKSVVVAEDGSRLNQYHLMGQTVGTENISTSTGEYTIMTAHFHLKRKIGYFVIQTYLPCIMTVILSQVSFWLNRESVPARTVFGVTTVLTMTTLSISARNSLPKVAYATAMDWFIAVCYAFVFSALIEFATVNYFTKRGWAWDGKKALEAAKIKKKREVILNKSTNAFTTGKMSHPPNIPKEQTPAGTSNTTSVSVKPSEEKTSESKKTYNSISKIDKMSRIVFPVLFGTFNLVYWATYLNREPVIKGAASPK
T3 sequence (P28472 26-473 partner): as the sequence (P28472 26-473 partner) above
T3 sequence (P18507 40-475): as the sequence (P18507 40-475) above
T1 sequence (P14867 28-456): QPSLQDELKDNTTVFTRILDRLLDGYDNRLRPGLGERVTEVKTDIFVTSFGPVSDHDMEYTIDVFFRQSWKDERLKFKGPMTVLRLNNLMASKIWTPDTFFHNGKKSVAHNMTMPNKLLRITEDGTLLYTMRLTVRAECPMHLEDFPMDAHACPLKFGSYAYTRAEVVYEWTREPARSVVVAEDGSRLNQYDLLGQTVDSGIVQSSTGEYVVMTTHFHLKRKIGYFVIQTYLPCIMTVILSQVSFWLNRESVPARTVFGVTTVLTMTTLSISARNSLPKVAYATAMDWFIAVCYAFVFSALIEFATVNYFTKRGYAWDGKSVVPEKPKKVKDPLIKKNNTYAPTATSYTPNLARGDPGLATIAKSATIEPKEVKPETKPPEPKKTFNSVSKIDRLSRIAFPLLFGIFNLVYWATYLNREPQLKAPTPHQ
T1 sequence (P28472 26-473 partner): as the sequence (P28472 26-473 partner) above
T1 sequence (P18507 40-475): as the sequence (P18507 40-475) above
T6 sequence (P62813 28-455): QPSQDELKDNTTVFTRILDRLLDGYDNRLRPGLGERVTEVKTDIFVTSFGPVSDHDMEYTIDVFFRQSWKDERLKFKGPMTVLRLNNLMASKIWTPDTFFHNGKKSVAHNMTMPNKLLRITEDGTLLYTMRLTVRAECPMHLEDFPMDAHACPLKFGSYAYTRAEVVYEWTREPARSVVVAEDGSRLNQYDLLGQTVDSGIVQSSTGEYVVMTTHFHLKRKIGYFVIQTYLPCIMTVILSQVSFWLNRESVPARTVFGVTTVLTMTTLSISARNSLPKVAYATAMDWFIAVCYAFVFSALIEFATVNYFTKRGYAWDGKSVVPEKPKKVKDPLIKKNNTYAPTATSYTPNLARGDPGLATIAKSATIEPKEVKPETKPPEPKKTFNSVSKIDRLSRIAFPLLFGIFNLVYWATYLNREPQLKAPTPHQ
T6 sequence (P63079 26-473 partner): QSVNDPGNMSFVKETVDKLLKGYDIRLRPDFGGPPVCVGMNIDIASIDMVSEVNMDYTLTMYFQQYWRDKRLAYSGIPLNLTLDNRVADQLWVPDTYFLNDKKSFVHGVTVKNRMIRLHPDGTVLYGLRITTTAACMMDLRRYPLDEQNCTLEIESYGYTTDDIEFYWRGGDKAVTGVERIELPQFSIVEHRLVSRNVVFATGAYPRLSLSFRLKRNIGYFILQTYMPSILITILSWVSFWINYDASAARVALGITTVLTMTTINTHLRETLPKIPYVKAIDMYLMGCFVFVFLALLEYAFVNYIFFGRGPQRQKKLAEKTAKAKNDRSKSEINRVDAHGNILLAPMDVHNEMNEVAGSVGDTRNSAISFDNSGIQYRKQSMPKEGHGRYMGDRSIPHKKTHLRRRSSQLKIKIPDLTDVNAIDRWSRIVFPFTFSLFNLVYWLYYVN
T6 sequence (P18508 39-466): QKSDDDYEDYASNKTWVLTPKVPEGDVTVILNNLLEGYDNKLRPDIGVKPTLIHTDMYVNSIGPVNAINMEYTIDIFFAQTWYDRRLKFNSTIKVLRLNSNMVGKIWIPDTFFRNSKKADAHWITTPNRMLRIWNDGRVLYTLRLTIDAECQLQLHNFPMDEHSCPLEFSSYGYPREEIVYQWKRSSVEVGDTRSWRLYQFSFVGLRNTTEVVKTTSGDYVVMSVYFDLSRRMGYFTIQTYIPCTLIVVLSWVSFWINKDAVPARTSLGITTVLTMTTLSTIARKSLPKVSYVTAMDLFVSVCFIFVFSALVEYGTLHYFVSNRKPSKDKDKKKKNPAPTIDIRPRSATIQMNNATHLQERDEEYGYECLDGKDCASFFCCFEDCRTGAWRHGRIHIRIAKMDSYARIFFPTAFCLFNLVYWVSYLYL

## CCOc1cc2c(cn1)[nH]c1ccccc12 [3-EBC]
α1β3γ2 GABAA receptor [1]
  Ki: 6.43 nM
α2β3γ2 GABAA receptor [2]
  Ki: 25.1 nM
α5β3γ2 GABAA receptor [3]; [17]
  Ki: 868 nM
α6β3γ2 GABAA receptor [4]; [18]
  Ki: > 1000 nM
[5]
  IC50: 24 nM

## COc1cc2c(cn1)[nH]c1ccccc12 [3-methoxy]
[5]
  IC50: 124 nM

## Cc1nnc2ccc(-c3cccc(C(F)(F)F)c3)nn12 [CL218, 872, reference compound]
α1β3γ2 GABAA receptor [1]
  Ki: 57 nM
α2β3γ2 GABAA receptor [2]
  Ki: 1960 nM
α3β3γ2 GABAA receptor [6]
  Ki: 1160 nM
α5β3γ2 GABAA receptor [3]; [17]
  Ki: 561 nM
α6β3γ2 GABAA receptor [4]; [18]
  Ki: > 1000 nM

## CNC1=Nc2ccc(Cl)cc2C(c2ccccc2)=[N+]([O-])C1 [Chlordiazepoxide, reference compound]
HAD-1 rats
  locomotor activity, drug given alone: profound and comparable reduction in locomotor activity
P rats [7]
  locomotor activity, drug given alone: profound and comparable reduction in locomotor activity

## Cn1ncnc1COc1nn2c(-c3cc(F)ccc3F)nnc2cc1C(C)(C)C [L-838, 417]
α1β3γ2 GABAA receptor [8]
  Ki: 0.79 nM
α2β3γ2 GABAA receptor [9]
  Ki: 0.67 nM
α3β3γ2 GABAA receptor [10]
  Ki: 0.67 nM
α5β3γ2 GABAA receptor [11]
  Ki: 267 nM
α6β3γ2 GABAA receptor [12]
  Ki: 2.25 nM

## O=C1CC[C@@]2(O)[C@H]3Cc4ccc(O)c5c4[C@@]2(CCN3CC2CC2)[C@H]1O5 [Naltrexone, naltrexone, reference compound]
P rats [13]; oral (gavage) 75 mg/kg
  responding for sucrose: significantly reduces responding for sucrose
P rats [13]; oral (gavage), βCCt 15 & 30 mg/kg, 3-PBC 30-75 mg/kg, naltrexone 30-75 mg/kg
  EtOH responding: significantly reduces EtOH responding
P rats [13]; oral (gavage), βCCt 15 & 75 mg/kg
  EtOH responding 24 hours after administration: dissipated

## CCOC(=O)c1ncn2c1CN(C)C(=O)c1cc(F)ccc1-2 [Ro15-1788, flumazenil]
GABAA α1β3γ2 receptors
  % of GABA response, α1: 99±5%
GABAA α2β3γ2 receptors
  % of GABA response, α2: 115±4%
GABAA α3β3γ2 receptors
  % of GABA response, α3: 118±7%
GABAA α4β3γ2 receptors; saturating 1-10 μM modulator with EC50 GABA (10 μM), mean±S.D.
  % of GABA response, α4: 132±6%
GABAA α5β3γ2 receptors
  % of GABA response, α5: 96±6%
[14]
  efficacy profile at the α1 through α5 receptors: statistically similar to 3-PBC
[15]
  alcohol-maintained responding: did not alter EtOH-maintained responding
Squirrel monkeys
  activity in observational studies vs saline controls: decreased overall activity

## CCOC(=O)c1ncc2[nH]c3cccc(OC(C)C)c3c2c1C [ZK 93426]
GABAA α1β3γ2 receptors
  % of GABA response, α1: 146+11%
GABAA α2β3γ2 receptors
  % of GABA response, α2: 140±13%
GABAA α3β3γ2 receptors
  % of GABA response, α3: 147±10%
GABAA α4β3γ2 receptors
  % of GABA response, α4: 137±8%
GABAA α5β3γ2 receptors
  % of GABA response, α5: ~96±6%
α1β3γ2 GABAA receptor [8]
  Ki: 11 nM
α2β3γ2 GABAA receptor [9]
  Ki: 31 nM
α3β3γ2 GABAA receptor [10]
  Ki: 24 nM
α5β3γ2 GABAA receptor [11]
  Ki: 3 nM
α6β3γ2 GABAA receptor [12]
  Ki: 1600 nM
[15]
  alcohol-maintained responding: can selectively reduce alcohol-maintained responding
[16]
  blocking the sedative actions of alcohol: capable of blocking

## Cc1ccc(-c2nc3ccc(C)cn3c2CC(=O)N(C)C)cc1 [Zolpidem, reference compound]
α5β3γ2 GABAA receptor [3]
  Ki: > 1000 nM
α6β3γ2 GABAA receptor [4]
  Ki: > 1000 nM

## CCOC(=O)c1cc2c(cn1)[nH]c1ccccc12 [βCCE]
[5]
  IC50: 5 nM
